# Measurements published in patent US9555022B2, “Substituted triazolopyridines” (Bayer Intellectual Property GmbH, priority 2010, dated 2017).
# Counter-ions that a name gives are not always drawn.
# Molecular target: human full length recombinant Mps-1 kinase (Homo sapiens (Human), UniProt P33981)
# Assay: Mps-1 Kinase Assay (TR-FRET)
# Format: biochemical
# Conditions: 10 μM ATP, 1 μM biotinylated peptide substrate, 60 min at 22° C., read-out: Mps-1 Inhibition, IC50 in M
# Method: The human kinase Mps-1 phosphorylates a biotinylated substrate peptide. Detection of the phosphorylated product is achieved by time-resolved fluorescence resonance energy transfer (TR-FRET) from Europium-labelled anti-phospho-Serine/Threonine antibody as donor to streptavidin labelled with cross-linked allophycocyanin (SA-XLent) as acceptor. Compounds are tested for their inhibition of the kinase activity.
# N-terminally GST-tagged human full length recombinant Mps-1 kinase (purchased from Invitrogen, Karslruhe, Germany, cat. no PV4071) was used. As substrate for the kinase reaction a biotinylated peptide of the amino-acid sequence […] (C-terminus in amide form, purchased from Biosynthan GmbH, Berlin) was used.
# The concentration of Mps-1 in the assay was adjusted to the activity of the enzyme lot and was chosen appropriate to have the assay in the linear range, typical enzyme concentrations were in the range of about 1 nM (final conc. in the 5 μl assay volume).
# The resulting mixture was incubated 1 h at 22° C. to allow the binding of the phosphorylated peptide to the anti-phospho(Ser/Thr)-Europium-antibody. Subsequently the amount of phosphorylated substrate was evaluated by measurement of the resonance energy transfer from the Europium-labelled anti-phospho(Ser/Thr) antibody to the Streptavidin-XLent.
# Sequence of human full length recombinant Mps-1 kinase (P33981 whole entry): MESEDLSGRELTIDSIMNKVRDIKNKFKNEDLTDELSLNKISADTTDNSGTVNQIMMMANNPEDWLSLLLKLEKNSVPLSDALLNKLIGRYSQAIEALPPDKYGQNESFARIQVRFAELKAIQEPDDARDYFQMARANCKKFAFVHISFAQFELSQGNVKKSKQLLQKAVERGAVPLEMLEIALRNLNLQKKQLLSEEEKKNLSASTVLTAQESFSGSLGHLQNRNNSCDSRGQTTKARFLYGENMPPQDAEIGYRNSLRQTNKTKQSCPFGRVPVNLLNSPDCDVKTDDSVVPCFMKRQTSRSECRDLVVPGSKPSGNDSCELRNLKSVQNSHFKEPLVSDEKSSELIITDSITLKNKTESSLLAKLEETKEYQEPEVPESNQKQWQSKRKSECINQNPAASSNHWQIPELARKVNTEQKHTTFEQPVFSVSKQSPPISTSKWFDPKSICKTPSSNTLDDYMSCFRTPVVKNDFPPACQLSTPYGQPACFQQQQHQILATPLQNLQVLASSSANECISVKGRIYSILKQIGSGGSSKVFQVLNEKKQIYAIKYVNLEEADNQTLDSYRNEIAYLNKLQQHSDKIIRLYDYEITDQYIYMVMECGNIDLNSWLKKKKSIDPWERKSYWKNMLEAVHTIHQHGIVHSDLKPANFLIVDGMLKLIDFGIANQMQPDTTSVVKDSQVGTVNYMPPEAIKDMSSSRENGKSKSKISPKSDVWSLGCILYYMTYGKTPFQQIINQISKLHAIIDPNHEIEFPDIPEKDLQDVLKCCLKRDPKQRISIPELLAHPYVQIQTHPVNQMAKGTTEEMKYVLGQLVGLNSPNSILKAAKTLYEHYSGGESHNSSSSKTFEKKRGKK
row,IC50 [nM],SMILES
1,≤ 1,"Cc1cc(C(=O)N2CCOCC2)ccc1Nc1nc2ccc(-c3ccc(C(=O)NCc4ccc(F)cc4)cc3)cn2n1 [Example 04.29, N-(4-fluorobenzyl)-4-(2-{[2-methyl-4-(morpholin-4-ylcarbonyl)phenyl]amino}[,2]-triazolo[1,5-a]pyridin-6-yl)benzamide]"
2,≤ 1,"COc1cc(CN2CCOCC2)ccc1Nc1nc2ccc(-c3ccc(NC(=O)Cc4ccc(F)cc4)cc3)cn2n1 [Example 02.33, 2-(4-fluorophenyl)-N-[4-(2-{[2-methoxy-4-(morpholin-4-ylmethyl)phenyl]amino}[,2]-triazolo[1,5-a]pyridin-6-yl)phenyl]acetamide]"
3,≤ 1,"O=C(Cc1ccc(F)cc1)Nc1ccc(-c2ccc3nc(Nc4ccc(C(=O)N5CCOCC5)cc4C(F)(F)F)nn3c2)cc1 [Example 02.32, 2-(4-fluorophenyl)-N-[4-(2-{[4-(morpholin-4-ylcarbonyl)-2-(trifluoromethyl)phenyl]amino}[,2]-triazolo[1,5-a]pyridin-6-yl)phenyl]acetamide]"
4,≤ 1,"CCOc1cc(C(=O)N2CC(O)C2)ccc1Nc1nc2ccc(-c3ccc(C(=O)NCc4ccc(F)cc4)cc3)cn2n1 [Example 04.14, 4-[2-({2-ethoxy-4-[(3-hydroxyazetidin-1-yl)carbonyl]phenyl}amino)[,2]triazolo[1,5-a]pyridin-6-yl]-N-(4-fluorobenzyl)benzamide]"
5,≤ 1,"O=C(NCc1ccc(F)cc1)c1ccc(-c2ccc3nc(Nc4ccc(C(=O)N5CCOCC5)cc4C(F)(F)F)nn3c2)cc1 [Example 04.23, N-(4-fluorobenzyl)-4-(2-{[4-(morpholin-4-ylcarbonyl)-2-(trifluoromethyl)phenyl]amino}[,2]triazolo[1,5-a]pyridin-6-yl)benzamide]"
6,≤ 1,"O=C(Cc1ccc(F)cc1)Nc1ccc(-c2ccc3nc(Nc4ccc(C(=O)N5CC6(COC6)C5)cc4OCCF)nn3c2)cc1 [Example 02.30, N-[4-(2-{[2-(2-fluoroethoxy)-4-(2-oxa-6-azaspiro[3.3]hept-6-ylcarbonyl)phenyl]amino}[,2]triazolo[1,5-a]pyridin-6-yl)phenyl]-2-(4-fluorophenyl)acetamide]"
7,≤ 1,"COc1cc(CN2CCOCC2)ccc1Nc1nc2ccc(-c3ccc(C(=O)NCc4ccc(F)cc4)c(F)c3)cn2n1 [Example 06.02, 2-fluoro-N-(4-fluorobenzyl)-4-(2-{[2-methoxy-4-(morpholin-4-ylmethyl)phenyl]amino}[,2]-triazolo[1,5-a]pyridin-6-yl)benzamide]"
8,≤ 1,"CSc1cc(OC2CCN(C)CC2)ccc1Nc1nc2ccc(-c3ccc(C(=O)NCc4ccc(F)cc4)cc3)cn2n1 [Example 04.27, N-(4-fluorobenzyl)-4-[2-({4-[(1-methylpiperidin-4-yl)oxy]-2-(methylsulfanyl)phenyl}amino)[,2]triazolo[1,5-a]pyridin-6-yl]benzamide]"
9,≤ 1,"COc1cc(N2CCN(C(C)(C)C)CC2)ccc1Nc1nc2ccc(-c3ccc(C(=O)NCc4ccc(F)cc4)cc3)cn2n1 [Example 04.19, 4-(2-{[4-(4-tert-butylpiperazin-1-yl)-2-methoxyphenyl]amino}[,2]triazolo[1,5-a]pyridin-6-yl)-N-(4-fluorobenzyl)benzamide]"
10,≤ 1,"Cc1nc(N2CCCC2)ccc1Nc1nc2ccc(-c3ccc(C(=O)NCc4ccc(F)cc4)cc3)cn2n1 [Example 04.34, N-(4-fluorobenzyl)-4-(2-{[2-methyl-6-(pyrrolidin-1-yl)pyridin-3-yl]amino}[,2]triazolo[1,5-a]pyridin-6-yl)benzamide]"
11,≤ 1,"O=C(NCc1ccc(F)cc1)c1ccc(-c2ccc3nc(Nc4ccc(C(=O)N5CCOCC5)cc4F)nn3c2)cc1 [Example 04.21, N-(4-fluorobenzyl)-4-(2-{[2-fluoro-4-(morpholin-4-ylcarbonyl)phenyl]amino}[,2]-triazolo[1,5-a]pyridin-6-yl)benzamide]"
12,≤ 1,"COc1cc(OC2CCN(C)CC2)ccc1Nc1nc2ccc(-c3ccc(C(=O)NCc4ccc(F)cc4)cc3)cn2n1 [Example 04.26, N-(4-fluorobenzyl)-4-[2-({2-methoxy-4-[(1-methylpiperidin-4-yl)oxy]phenyl}amino)[,2]triazolo[1,5-a]pyridin-6-yl]benzamide]"
13,≤ 1,"CCOc1cc(C(=O)NC2CCN(C)CC2)ccc1Nc1nc2ccc(-c3ccc(NC(=O)Cc4ccc(F)cc4)cc3)cn2n1 [Example 02.25, 3-ethoxy-4-{[6-(4-{[(4-fluorophenyl)acetyl]amino}phenyl)[,2]-triazolo[1,5-a]pyridin-2-yl]amino}-N-(1-methylpiperidin-4-yl)benzamide]"
14,≤ 1,"CCOc1cc(OC2CCN(C)CC2)ccc1Nc1nc2ccc(-c3ccc(NC(=O)Cc4ccc(F)cc4)cc3)cn2n1 [Example 02.34, N-{4-[2-({2-ethoxy-4-[(1-methylpiperidin-4-yl)oxy]phenyl}amino)[,2]triazolo[1,5-a]pyridin-6-yl]phenyl}-2-(4-fluorophenyl)acetamide]"
15,2.71,"COc1cc(C(=O)N2CCOCC2)ccc1Nc1nc2ccc(-c3ccc(C(=O)NCC4CC4)cc3)cn2n1 [Example 03.01, N-(cyclopropylmethyl)-4-(2-{[2-methoxy-4-(morpholin-4-ylcarbonyl)phenyl]amino}[,2]-triazolo[1,5-a]pyridin-6-yl)benzamide]"
16,≤ 1,"COc1cc(N2CCN(C)CC2)ccc1Nc1nc2ccc(-c3ccc(NC(=O)Cc4ccc(F)cc4)cc3)cn2n1 [Example 02.28, 2-(4-fluorophenyl)-N-[4-(2-{[2-methoxy-4-(4-methylpiperazin-1-yl)phenyl]amino}[,2]-triazolo[1,5-a]pyridin-6-yl)phenyl]acetamide]"
17,1.1,"COc1cc(N2CCOC2=O)ccc1Nc1nc2ccc(-c3ccc(C(=O)NCc4ccc(F)cc4)c(C)c3)cn2n1 [Example 07.02, N-(4-fluorobenzyl)-4-(2-{[2-methoxy-4-(2-oxo-1,3-oxazolidin-3-yl)phenyl]amino}[,2]-triazolo[1,5-a]pyridin-6-yl)-2-methylbenzamide]"
18,≤ 1,"CCOc1cc(C(=O)N2CCN(CC3CC3)CC2)ccc1Nc1nc2ccc(-c3ccc(NC(=O)Cc4ccc(F)cc4)cc3)cn2n1 [Example 02.07, N-(4-{2-[(4-{[4-(cyclopropylmethyl)piperazin-1-yl]carbonyl}-2-ethoxyphenyl)amino][,2]triazolo[1,5-a]pyridin-6-yl}phenyl)-2-(4-fluorophenyl)acetamide]"
19,1.62,"COc1cc(C(=O)N2CCOCC2)ccc1Nc1nc2ccc(-c3ccc(NC(=O)Cc4ccc(F)cc4)nc3)cn2n1 [Example 11.01, 2-(4-fluorophenyl)-N-[5-(2-{[2-methoxy-4-(morpholin-4-ylcarbonyl)phenyl]amino}[,2]triazolo[1,5-a]pyridin-6-yl)pyridin-2-yl]acetamide]"
20,≤ 1,"CCOc1cc(C(=O)N2CCN(C(C)=O)CC2)ccc1Nc1nc2ccc(-c3ccc(C(=O)NCc4ccc(F)cc4)cc3)cn2n1 [Example 04.13, 4-[2-({4-[(4-acetylpiperazin-1-yl)carbonyl]-2-ethoxyphenyl}amino)[,2]triazolo[1,5-a]pyridin-6-yl]-N-(4-fluorobenzyl)benzamide]"
21,≤ 1,"O=C(NCc1ccc(F)cc1)c1ccc(-c2ccc3nc(Nc4ccc(C(=O)N5CC6(COC6)C5)cc4OC(F)(F)F)nn3c2)cc1 [Example 04.30, N-(4-fluorobenzyl)-4-(2-{[4-(2-oxa-6-azaspiro[3.3]hept-6-ylcarbonyl)-2-(trifluoromethoxy)phenyl]amino}[,2]-triazolo[1,5-a]pyridin-6-yl)benzamide]"
22,≤ 1,"CCOc1cc(C(=O)N2CCNCC2)ccc1Nc1nc2ccc(-c3ccc(NC(=O)Cc4ccc(F)cc4)cc3)cn2n1 [Example 02.06, N-[4-(2-{[2-ethoxy-4-(piperazin-1-ylcarbonyl)phenyl]amino}[,2]-triazolo[1,5-a]pyridin-6-yl)phenyl]-2-(4-fluorophenyl)acetamide]"
23,≤ 1,"O=C(NCc1ccc(F)cc1)c1ccc(-c2ccc3nc(Nc4ccc(C(=O)N5CCOCC5)cc4OCC(F)(F)F)nn3c2)cc1 [Example 04.17, N-(4-fluorobenzyl)-4-(2-{[4-(morpholin-4-ylcarbonyl)-2-(2,2,2-trifluoroethoxy)phenyl]amino}[,2]-triazolo[1,5-a]pyridin-6-yl)benzamide]"
24,≤ 1,"COc1cc(N2CCN(C)CC2)ccc1Nc1nc2ccc(-c3ccc(C(=O)NCc4ccc(F)cc4)cc3)cn2n1 [Example 04.18, N-(4-fluorobenzyl)-4-(2-{[2-methoxy-4-(4-methylpiperazin-1-yl)phenyl]amino}[,2]triazolo[1,5-a]pyridin-6-yl)benzamide]"
25,1.05,"COc1cc(N2CCN(C)CC2)ccc1Nc1nc2ccc(-c3ccc(NC(=O)Cc4ccc(F)cc4)cc3)cn2n1 [Example 02.08, 2-(4-fluorophenyl)-N-[4-(2-{[2-methoxy-4-(4-methylpiperazin-1-yl)phenyl]amino}[,2]-triazolo[1,5-a]pyridin-6-yl)phenyl]acetamide trifluoroacetate]"
26,≤ 1,"CCOc1cc(C(=O)N2CCOCC2)ccc1Nc1nc2ccc(-c3ccc(NC(=O)Cc4ccc(F)cc4)nc3)cn2n1 [Example 11.02, N-[5-(2-{[2-ethoxy-4-(morpholin-4-ylcarbonyl)phenyl]amino}[,2]triazolo[1,5-a]pyridin-6-yl)pyridin-2-yl]-2-(4-fluorophenyl)acetamide]"
